Source: US7531554B2, “4-oxoquinoline compound and use thereof as HIV integrase inhibitor” (Japan Tobacco Inc., priority 2004, dated 2009)
Where a name gives a salt, the structure may show the parent alone.

Target: T1, HIV integrase (Human immunodeficiency virus type 1 group M subtype B, UniProt P12497, F1332H)
T1 construct: HIV integrase full length gene (J. Virol., 67, 425-437 (1993)) in which phenylalanine at codon 185 was substituted by histidine; made in house; host or cells: Escherichia coli BL21(DE3)
Assay: Determination of enzyme (HIV integrase) inhibitory activity
Format: biochemical
Conditions: recombinant integrase protein (F185H), donor DNA/target DNA, absorbance at 450 nm
Experimental: HIV integrase full length gene (J. Virol., 67, 425-437 (1993)) in which phenylalanine at codon 185 was substituted by histidine, was inserted between the restriction enzyme NdeI and XhoI sites of plasmid pET21a(+) (Novagen), whereby an integrase expression vector pET21a-IN-F185H was constructed.
Escherichia coli recombinant BL21(DE3) transformed with plasmid pET21a-IN-F185H obtained in (i) was shake cultured at 30° C. in a liquid medium containing ampicillin. When the culture reached the logarithmic growth phase, isopropyl-β-D-thiogalactopyranoside was added to promote expression of integrase gene. The culture was continued for 3 hr to promote accumulation of the integrase protein. The recombinant E. coli was collected in pellets by centrifugal separation and preserved at −80° C.
The E. coli was suspended in Lysis buffer (20 mM HEPES (pH 7.5), 5 mM DTT, 10 mM CHAPS, 10% glycerol) containing 1M sodium chloride and subjected to repeat pressurization and depressurization for rupture, and centrifugal separation at 4° C., 40,000×g, 60 min to recover a water-soluble fraction (supernatant). This was diluted 10-fold with Lysis buffer free of sodium chloride, mixed with SP-Sepharose (Pharmacia Corporation) and stirred at 4° C. for 60 min to allow adsorption of integrase protein to the resin. The resin was washed with Lysis buffer containing 100 mM sodium chloride and the integrase protein was eluted with Lysis buffer containing 1M sodium chloride.
The eluted integrase protein solution was subjected to a Superdex 75 (Pharmacia Corporation) column for gel filtration. The protein was eluted with Lysis buffer containing 1M sodium chloride.
The obtained fractions of the integrase protein were collected and preserved at −80° C.
The following DNA synthesized by Greiner was dissolved in TE buffer (10 mM Tris-hydrochloric acid (pH 8.0), 1 mM EDTA) and mixed with donor DNA, target DNA, and each complementary strand (+ and − strands) to 1 μM. The mixture was heated at 95° C. for 5 min, 80° C. for 10 min, 70° C. for 10 min, 60° C. for 10 min, 50° C. for 10 min and 40° C. for 10 min and kept at 25° C. to give a double stranded DNA, which was used for the test. Donor DNA ([…] attached to the 5′ terminal) Donor + strand: 5′-Biotin-ACCCTTTTAGTCAGTGTGGAAAATCTCTAGCA-3′ (SEQ ID NO:1) Donor − strand: 5′-ACTGCTAGAGATTTTCCACACTGACTAAAAG-3′ (SEQ ID NO:2) Target DNA (+, − strands both having digoxigenin added at 3′ terminal) Target + strand: 5′-TGACCAAGGGCTAATTCACT-Dig-3′ (SEQ ID NO:3) Target − strand: 5′-AGTGAATTAGCCCTTGGTCA-Dig-3′ (SEQ ID NO:4)
The donor DNA was diluted with TE buffer to 10 nM, of which 50 μl was added to each well of streptavidin-coated microtiter plate (Roche) and allowed to adsorb at 37° C. for 60 min. The plate was washed with phosphate buffer (Dulbecco's PBS, Sanko Junyaku Co., Ltd.) containing 0.1% Tween 20 and phosphate buffer. Then, an enzyme reaction mixture (70 μl), a test substance (10 μl) diluted with the reaction mixture and 100 μg/ml integrase protein (10 μl) were added to each well and reacted at 37° C. for 60 min.
Then, 50 nM target DNA (10 μl) was added, reacted at 37° C. for 10 min and washed with phosphate buffer containing 0.1% Tween 20 to stop the reaction.
Then, 100 mU/ml peroxidase labeled anti-digoxigenin antibody solution (Roche, 100 μl) was added, and the mixture was reacted at 37° C. for 60 min, followed by washing with phosphate buffer containing 0.1% Tween 20.
A peroxidase color solution (Bio Rad, 100 μl) was added and allowed to react at room temperature for 4 min. The color reaction was stopped by adding 1N sulfuric acid (100 μl). The absorbance at 450 nm was measured.
The HIV integrase inhibitory activity (IC50) of the compound of the present invention was calculated from the inhibition rate according to the following formula. […]

| SMILES | IC50 |
| --- | --- |
| CC(C)[C@@H](CO)n1cc(C(=O)O)c(=O)c2cc(Cc3cccc(Cl)c3F)c(O[C@H]3CCNC3)cc21 [Example 4-46, 6-(3-chloro-2-fluorobenzyl)-1-((1S)-1-(hydroxymethyl)-2-methylpropyl)-4-oxo-7-((3S)-pyrrolidin-3-yloxy)-1,4-dihydroquinoline-3-carboxylic acid hydrochloride] | 6.8 nM |
| CC(C)[C@@H](CO)n1cc(C(=O)O)c(=O)c2cc(Cc3cccc(Cl)c3F)c(N3CC[C@H](O)C3)cc21 [Example 4-24, 6-(3-chloro-2-fluorobenzyl)-1-((1S)-1-(hydroxymethyl)-2-methylpropyl)-7-((3S)-3-hydroxypyrrolidin-1-yl)-4-oxo-1,4-dihydroquinoline-3-carboxylic acid] | 12 nM |
| CC(C)[C@@H](CO)n1cc(C(=O)O)c(=O)c2cc(Cc3cccc(Cl)c3F)c(N3CCN[C@H](C)C3)cc21 [Example 4-29, 6-(3-chloro-2-fluorobenzyl)-1-((1S)-1-(hydroxymethyl)-2-methylpropyl)-7-((3R)-3-methylpiperazin-1-yl)-4-oxo-1,4-dihydroquinoline-3-carboxylic acid] | 5.1 nM |
| CC(C)[C@@H](CO)n1cc(C(=O)O)c(=O)c2cc(Cc3cccc(Cl)c3F)c(O[C@@H]3CCOC3)cc21 [Example 4-48, 6-(3-chloro-2-fluorobenzyl)-1-((1S)-1-(hydroxymethyl)-2-methylpropyl)-4-oxo-7-((3R)-tetrahydrofuran-3-yloxy)-1,4-dihydroquinoline-3-carboxylic acid] | 5.6 nM |
| COC[C@@H](CO)n1cc(C(=O)O)c(=O)c2cc(Cc3cccc(Cl)c3F)c(OC)cc21 [Example 2-18, 6-(3-chloro-2-fluorobenzyl)-1-((1R)-1-(hydroxymethyl)-2-methoxyethyl)-7-methoxy-4-oxo-1,4-dihydroquinoline-3-carboxylic acid] | 6 nM |
| CC(C)[C@@H](CO)n1cc(C(=O)O)c(=O)c2cc(Cc3cccc(Cl)c3F)c(O[C@@H]3CCN(C)C3)cc21 [Example 4-55, 6-(3-chloro-2-fluorobenzyl)-1-((1S)-1-(hydroxymethyl)-2-methylpropyl)-7-((3R)-1-methylpyrrolidin-3-yloxy)-4-oxo-1,4-dihydroquinoline-3-carboxylic acid trifluoroacetate] | 7.6 nM |
| CC(C)[C@@H](CO)n1cc(C(=O)O)c(=O)c2cc(Cc3cccc(Cl)c3F)c(OCc3cccnc3)cc21 [Example 4-61, 6-(3-chloro-2-fluorobenzyl)-1-((1S)-1-(hydroxymethyl)-2-methylpropyl)-4-oxo-7-(pyridin-3-ylmethoxy)-1,4-dihydroquinoline-3-carboxylic acid] | 4.9 nM |
| CC(C)[C@@H](CO)n1cc(C(=O)O)c(=O)c2cc(Cc3cccc(Cl)c3F)c(OCC(=O)N(C)C)cc21 [Example 4-53, 6-(3-chloro-2-fluorobenzyl)-7-((dimethylaminocarbonyl)methoxy)-1-((1S)-1-(hydroxymethyl)-2-methylpropyl)-4-oxo-1,4-dihydroquinoline-3-carboxylic acid] | 5 nM |
| CC(C)[C@@H](CO)n1cc(C(=O)O)c(=O)c2cc(Cc3cccc(Cl)c3F)c(OCCN3CCOCC3)cc21 [Example 4-16, 6-(3-chloro-2-fluorobenzyl)-1-((1S)-1-(hydroxymethyl)-2-methylpropyl)-7-(2-(morpholin-4-yl)ethoxy)-4-oxo-1,4-dihydroquinoline-3-carboxylic acid] | 7.9 nM |
| CC(C)[C@@H](CO)n1cc(C(=O)O)c(=O)c2cc(Cc3cccc(Cl)c3F)c(N3CC[C@@H](O)C3)cc21 [Example 4-23, 6-(3-chloro-2-fluorobenzyl)-1-((1S)-1-(hydroxymethyl)-2-methylpropyl)-7-((3R)-3-hydroxypyrrolidin-1-yl)-4-oxo-1,4-dihydroquinoline-3-carboxylic acid] | 27 nM |
| CC(C)[C@@H](CO)n1cc(C(=O)O)c(=O)c2cc(Cc3cccc(Cl)c3F)c(N3CCNCC3)cc21 [Example 4-12, 6-(3-chloro-2-fluorobenzyl)-1-((1S)-1-(hydroxymethyl)-2-methylpropyl)-4-oxo-7-(piperazin-1-yl)-1,4-dihydroquinoline-3-carboxylic acid] | 7.3 nM |
| CC(C)(C)[C@@H](CO)n1cc(C(=O)O)c(=O)c2cc(Cc3cccc(Cl)c3F)c(N3CCOCC3)cc21 [Example 7-6, 6-(3-chloro-2-fluorobenzyl)-1-((1S)-2,2-dimethyl-1-(hydroxymethyl)propyl)-7-(morpholin-4-yl)-4-oxo-1,4-dihydroquinoline-3-carboxylic acid] | 4.3 nM |
| CC1CN(c2cc3c(cc2Cc2cccc(Cl)c2F)c(=O)c(C(=O)O)cn3[C@H](CO)C(C)C)CC(C)N1 (stereo partly drawn) [Example 4-22, 6-(3-chloro-2-fluorobenzyl)-7-(3,5-dimethylpiperazin-1-yl)-1-((1S)-1-(hydroxymethyl)-2-methylpropyl)-4-oxo-1,4-dihydroquinoline-3-carboxylic acid] | 7.1 nM |
| COc1cc2c(cc1Cc1c(O)ccc(Cl)c1F)c(=O)c(C(=O)O)cn2[C@H](CO)C(C)C [Example 1-3, 6-(3-chloro-2-fluoro-6-hydroxybenzyl)-1-((1S)-1-(hydroxymethyl)-2-methylpropyl)-7-methoxy-4-oxo-1,4-dihydroquinoline-3-carboxylic acid] | 7.8 nM |
| CC(C)[C@@H](CO)n1cc(C(=O)O)c(=O)c2cc(Cc3cccc(Cl)c3F)c(OCCCCN(C)C)cc21 [Example 4-7, 6-(3-chloro-2-fluorobenzyl)-7-(4-(dimethylamino)butoxy)-1-((1S)-1-(hydroxymethyl)-2-methylpropyl)-4-oxo-1,4-dihydroquinoline-3-carboxylic acid] | 5 nM |
| CC(C)[C@@H](CO)n1cc(C(=O)O)c(=O)c2cc(Cc3cccc(Cl)c3F)cc(OCCN(C)C)c21 [Example 3-6, 6-(3-chloro-2-fluorobenzyl)-8-(2-(dimethylamino)ethoxy)-1-((1S)-1-(hydroxymethyl)-2-methylpropyl)-4-oxo-1,4-dihydroquinoline-3-carboxylic acid] | 11 nM |
| COc1cc2c(cc1Cc1cccc(Cl)c1F)c(=O)c(C(=O)O)cn2[C@H](CO)C(C)(C)S(C)(=O)=O [Example 2-6, 6-(3-chloro-2-fluorobenzyl)-1-((1R)-1-(hydroxymethyl)-2-mesyl-2-methylpropyl)-7-methoxy-4-oxo-1,4-dihydroquinoline-3-carboxylic acid] | 3.8 nM |
| CC(C)[C@@H](CO)n1cc(C(=O)O)c(=O)c2cc(Cc3cccc(Cl)c3F)c(N3CC[C@@H](N)C3)cc21 [Example 4-39, 7-((3R)-3-aminopyrrolidin-1-yl)-6-(3-chloro-2-fluorobenzyl)-1-((1S)-1-(hydroxymethyl)-2-methylpropyl)-4-oxo-1,4-dihydroquinoline-3-carboxylic acid] | 9.4 nM |
| CC(=O)N[C@H]1CCN(c2cc3c(cc2Cc2cccc(Cl)c2F)c(=O)c(C(=O)O)cn3[C@H](CO)C(C)C)C1 [Example 4-26, 7-((3S)-3-(acetylamino)pyrrolidin-1-yl)-6-(3-chloro-2-fluorobenzyl)-1-((1S)-1-(hydroxymethyl)-2-methylpropyl)-4-oxo-1,4-dihydroquinoline-3-carboxylic acid] | 9.2 nM |
